Results as given in ChEMBL document CHEMBL5614431, “Discovery of 1,3,4-oxadiazoles with slow-action activity against Plasmodium falciparum malaria parasites” (Eur J Med Chem, 2024).

Columns and labels:
Plasmodium falciparum [1] = assay: Antimalarial activity against synchronous ring stage Plasmodium falciparum 3D7 infected in human Erythrocyte assessed as inhibition of parasite growth incubated for 48 hrs by [3H]-hypoxanthine incorporation assay; type: functional, organism-based; details: 3D7, Erythrocyte
Plasmodium falciparum [2] = assay: Antimalarial activity against synchronous ring stage Plasmodium falciparum 3D7 infected in human Erythrocyte assessed as inhibition of parasite growth incubated for 96 hrs by [3H]-hypoxanthine incorporation assay; type: functional, organism-based; details: 3D7, Erythrocyte
[3] = Selectivity ratio of IC50 for antimalarial activity against synchronous ring stage Plasmodium falciparum 3D7 infected in human Erythrocyte assessed as inhibition of parasite growth incubated for 48 hrs by [3H]-hypoxanthine incorporation assay to IC50 for antimalarial activity against synchronous ring stage Plasmodium falciparum 3D7 infected in human Erythrocyte assessed as inhibition of parasite growth incubated for 48 hrs by [3H]-hypoxanthine incorporation assay; type: functional
[4] = Selectivity index, ratio of IC50 for cytotoxicity against human NFF cells to IC50 for antimalarial activity against synchronous ring stage Plasmodium falciparum 3D7 infected in human Erythrocyte assessed as inhibition of parasite growth incubated for 96 hrs; type: toxicity, cell-based; details: read-out: Ratio IC50
[5] = Cytotoxicity against human NFF cells assessed as reduction in cell viability incubated for 72 hrs by SRB assay; type: toxicity, cell-based

| SMILES | IC50 (Plasmodium falciparum [1]) [µM] | IC50 (Plasmodium falciparum [2]) [µM] | Ratio IC50 [3] | selectivity ratio at 96 h [4] | IC50 at 72 h [5] [µM] |
| --- | --- | --- | --- | --- | --- |
| Cl.O=S(=O)(c1nnc(N2CCOCC2)o1)C1CCNCC1 | > 50 | > 50 | 1 |  |  |
| Cc1ccc(C)c(CSc2nnc(N3CCOCC3)o2)c1 | > 50 | > 50 |  |  |  |
| O=S(=O)(c1nnc(N2C3CCC2COC3)o1)C1CCCCC1 | > 12.5 | 0.37 | >34 | > 270 | > 100 |
| O=S(=O)(c1nnc(N2CCC3(CCCO3)CC2)o1)C1CCCCC1 | > 50 | 0.77 | >65 | > 135 | > 100 |
| O=S(=O)(c1ccc(Cl)c(Cl)c1)c1nnc(N2CCOCC2)o1 | 13.1 | 24.6 | 0.5 |  |  |
| O=S(=O)(c1nnc(N2CCOCC2)o1)C1CC2CCC1C2 (racemic) | > 10 | 0.28 | >36 | > 377 | > 100 |
| O=S(=O)(c1nnc(N2CCCC3(COC3)C2)o1)C1CCCCC1 | > 50 | 0.54 | >93 | > 185 | > 100 |
| O=S(=O)(c1nnc(N2CCCOCC2)o1)C1CCCCC1 | > 100 | 0.75 | >134 | > 133 | > 100 |
| CC1CCCN(c2nnc(S(=O)(=O)C3CCCCC3)o2)C1 (racemic) | > 12.5 | 0.1 | >125 | > 1000 | > 100 |
| O=S(=O)(c1nnc(N2CC3CC2CO3)o1)C1CCCCC1 (racemic) | > 50 | 1.58 | >32 | > 63 | > 100 |
| CN1CCN(c2nnc(S(=O)(=O)C3CCCCC3)o2)CC1 | > 100 | 5.4 | >19 |  |  |
| O=S(=O)(c1nnc(N2CCN(CC(F)(F)F)CC2)o1)C1CCCCC1 | > 25 | 2.35 | >11 |  |  |
| O=S(=O)(c1nnc(N2CCC(C(F)(F)F)CC2)o1)C1CCCCC1 | 22.1 | 0.37 | 61 | > 270 | > 100 |
| CC(C)(C)OC(=O)N1CCC(S(=O)(=O)c2nnc(N3CCOCC3)o2)CC1 | > 25 | 5.05 | >5 | > 20 | > 100 |
| CC1CCN(c2nnc(S(=O)(=O)C3CCCCC3)o2)CC1 | 39.3 | 0.22 | 182 | > 227 | > 50 |
| O=S(=O)(c1nnc(N2CC3CCC2C3)o1)C1CCCCC1 (racemic) | > 25 | 0.56 | >45 | > 179 | > 100 |
| C[C@@H]1CN(c2nnc(S(=O)(=O)C3CCCCC3)o2)C[C@H](C)O1 | > 25 | 0.29 | >85 | > 345 | > 100 |
| O=S1(=O)CCN(c2nnc(S(=O)(=O)C3CCCCC3)o2)CC1 | > 25 | 6.75 | >4 |  |  |
| CC1(C)CCN(c2nnc(S(=O)(=O)C3CCCCC3)o2)CC1 | > 25 | 0.15 | >171 | > 1080 | > 100 |
| CC1CC(C)CN(c2nnc(S(=O)(=O)C3CCCCC3)o2)C1 (mixture of isomers) | > 12.5 | 0.03 | >403 | > 4000 | > 100 |
| CC1(C)CCCN(c2nnc(S(=O)(=O)C3CCCCC3)o2)C1 | 21.1 | 0.04 | 527 | > 2500 | > 100 |
| O=S(=O)(CC1CCCCC1)c1nnc(N2CCOCC2)o1 | 17.6 | 0.39 | 45 | 151 | 59 |
| CC(=O)N1CCN(c2nnc(S(=O)(=O)C3CCCCC3)o2)CC1 | > 50 | 1.46 | >34 | > 69 | > 100 |
| O=S(=O)(CC1(C(F)(F)F)CC1)c1nnc(N2CCOCC2)o1 | > 12.5 | 3.19 | >4 |  |  |
| O=S(=O)(c1nnc(N2CCCCC2)o1)C1CCCCC1 | > 12.5 | 0.4 | >32 | > 250 | > 100 |
| O=S(=O)(c1nnc(N2CCOc3ccccc32)o1)C1CCCCC1 | 4.65 | 2.06 | 2.3 | 10 | 21.4 |
| O=S(=O)(Cc1ccc(Cl)c(Cl)c1)c1nnc(N2CCOCC2)o1 | 6.6 | 4.2 | 1.6 |  |  |

| SMILES | IC50 (Plasmodium falciparum [1]) [µM] | IC50 (Plasmodium falciparum [2]) [µM] | Ratio IC50 [3] | selectivity ratio at 96 h [4] | IC50 at 72 h [5] [µM] |
| --- | --- | --- | --- | --- | --- |
| O=S(=O)(c1nnc(N2CCC(c3ccccc3)CC2)o1)C1CCCCC1 | > 100 | 13.5 | >7 |  |  |
| O=S(=O)(c1nnc(N2CC3CCC(C2)O3)o1)C1CCCCC1 | > 50 | 0.1 | >500 | > 1000 | > 100 |
| CC1CN(c2nnc(S(=O)(=O)C3CCCCC3)o2)CCO1 (racemic) | > 25 | 0.38 | >66 | > 263 | > 100 |
| O=S(=O)(CC1CCCC1)c1nnc(N2CCOCC2)o1 | > 10 | 0.64 | >16 | > 158 | > 100 |
| O=S(=O)(c1nnc(N2CC3(CCOCC3)C2)o1)C1CCCCC1 | > 50 | 0.11 | >476 | > 909 | > 100 |
| O=S(=O)(c1nnc(N2CCC(F)(F)CC2)o1)C1CCCCC1 | > 12.5 | 0.72 | >17 | > 127 | > 100 |
| O=S(=O)(c1nnc(N2CCCC2)o1)C1CCCCC1 | > 50 | 3.53 | >14 | > 28 | > 100 |
| CC1CCCCN1c1nnc(S(=O)(=O)C2CCCCC2)o1 (racemic) | > 12.5 | 0.31 | >40 | > 277 | > 100 |
| Cc1ccc(C)c(C[S+]([O-])c2nnc(N3CCOCC3)o2)c1 (stereo unspecified) | 16.8 | 13.7 | 1 |  |  |
| CC1(C)CN(c2nnc(S(=O)(=O)C3CCCCC3)o2)CCO1 | > 25 | 0.24 | >105 | > 417 | > 100 |
| CC(C)(C)OC(=O)[C@@H]1CCCN1c1nnc(S(=O)(=O)C2CCCCC2)o1 | > 25 | 2.65 | >9 | > 38 | > 100 |
| COC1CCN(c2nnc(S(=O)(=O)C3CCCCC3)o2)CC1 | > 50 | 0.69 | >72 | > 145 | > 100 |
| O=S(=O)(c1nnc(N2CCOCC2)s1)C1CCCCC1 | > 50 | > 50 |  |  |  |
| O=S(=O)(CC1(C(F)(F)F)CCC1)c1nnc(N2CCOCC2)o1 | 17 | 4.3 | 4 |  |  |
| O=S(=O)(c1nnc(N2CCOCC2)o1)C1CCOCC1 | > 50 | 7.09 | >7 | > 14 | > 100 |
| O=S(=O)(c1nnc(N2CCNCC2)o1)C1CCCCC1 | 57.9 | 3.58 | 16 |  |  |
| CCOC(=O)C1CCCN(c2nnc(S(=O)(=O)C3CCCCC3)o2)C1 (racemic) | > 25 | 0.93 | >27 | > 111 | > 100 |
| O=S(=O)(c1nnc(N2CCC3(CC2)OCCO3)o1)C1CCCCC1 | > 50 | 0.9 | >56 | > 111 | > 100 |
| CC(C)(C)CS(=O)(=O)c1nnc(N2CCOCC2)o1 | > 10 | 1.34 | >8 | > 79 | > 100 |
| O=S(=O)(c1nnc(N2CCCCO2)o1)C1CCCCC1 | 8.24 | 18.4 | 0.4 |  |  |
| O=S(=O)(c1nnc(N2CCc3ccccc32)o1)C1CCCCC1 | > 10 | 1.12 | >9 | > 26 | > 25 |
| O=S(=O)(c1nnc(N2C3CCC2CC3)o1)C1CCCCC1 | 5.76 | 0.83 | 7 | 40 | 33.5 |
| O=S(=O)(CC12CC3CC(CC(C3)C1)C2)c1nnc(N2CCCCC2)o1 | 13.7 | 0.4 | 35 | 76 | 30.5 |
| N#CC1CCN(c2nnc(S(=O)(=O)C3CCCCC3)o2)CC1 | > 10 | 0.49 | >21 | > 200 | > 100 |
| CC(C)(C)OC(=O)N1CCN(c2nnc(S(=O)(=O)C3CCCCC3)o2)CC1 | > 50 | 2.73 | >18 |  |  |
| O=S(=O)(c1nnc(N2CCOCC2)o1)C1CCCC1 | > 50 | 5.82 | >9 |  |  |
